Target: T1, human PKCθ full length enzyme (Homo sapiens, UniProt Q04759)
T1 construct: human PKCθ full length enzyme (Panvera Catalog No. P2996); purchased Panvera P2996
Assay: PKCθ IMAP Assay
Type: biochemical
Conditions: average value when one or more samples were tested; ATP 6 uM, PKCθ 1 nM
Method in brief: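 Full-length human PKCθ (1 nM final) with 6 uM ATP and 100 nM 5FAM-labelled peptide, 5% DMSO, 3.0 mM DTT in reaction buffer. 25 min at room temperature; IMAP bead binding 20 min, fluorescence polarization read. Compounds 2:1 serially diluted; no-ATP and no-enzyme wells as controls.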

T1 sequence (Q04759 whole entry): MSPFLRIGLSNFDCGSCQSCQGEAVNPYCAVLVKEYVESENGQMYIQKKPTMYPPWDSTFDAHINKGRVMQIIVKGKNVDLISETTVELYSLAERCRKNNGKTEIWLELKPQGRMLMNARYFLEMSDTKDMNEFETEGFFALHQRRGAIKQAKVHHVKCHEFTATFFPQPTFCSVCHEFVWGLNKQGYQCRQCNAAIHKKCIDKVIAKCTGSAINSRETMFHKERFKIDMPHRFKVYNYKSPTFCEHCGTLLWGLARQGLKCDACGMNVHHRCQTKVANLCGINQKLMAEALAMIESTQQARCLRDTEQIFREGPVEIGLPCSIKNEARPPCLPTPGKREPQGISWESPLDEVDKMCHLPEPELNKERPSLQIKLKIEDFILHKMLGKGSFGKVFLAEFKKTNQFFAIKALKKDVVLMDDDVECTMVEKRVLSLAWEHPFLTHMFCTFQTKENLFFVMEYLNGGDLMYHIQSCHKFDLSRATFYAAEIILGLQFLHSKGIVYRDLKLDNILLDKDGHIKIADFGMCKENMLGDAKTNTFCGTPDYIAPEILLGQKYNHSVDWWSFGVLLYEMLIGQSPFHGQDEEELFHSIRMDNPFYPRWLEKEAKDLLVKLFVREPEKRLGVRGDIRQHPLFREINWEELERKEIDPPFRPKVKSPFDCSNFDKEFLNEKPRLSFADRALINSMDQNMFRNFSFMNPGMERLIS

An IC50 of 48 nM was found for `CON(C)C(=O)c1ccc(-c2cc3c(Nc4ccc5[nH]ccc5c4C)c(C#N)cnc3s2)cc1` [Compound 357, 4-{5-cyano-4-[(4-methyl-1H-indol-5-yl)amino]thieno[2,3-b]pyridin-2-yl}-N-methoxy-N-methylbenzamide] in this work.

An IC50 of 7 nM was found for `Cc1c(Nc2c(C#N)cnc3sc(-c4ccc(S(N)(=O)=O)cc4)c(C)c23)ccc2[nH]ccc12` [Compound 413, 4-{5-cyano-3-methyl-4-[(4-methyl-1H-indol-5-yl)amino]thieno[2,3-b]pyridin-2-yl}benzenesulfonamide] in this work.

An IC50 of 60 nM was found for `CNS(=O)(=O)c1cccc(-c2sc3ncc(C#N)c(Nc4ccc5[nH]ccc5c4C)c3c2C)c1` [Compound 428, 3-{5-cyano-3-methyl-4-[(4-methyl-1H-indol-5-yl)amino]thieno[2,3-b]pyridin-2-yl}-N-methylbenzenesulfonamide] in this work.

An IC50 of 100 nM was found for `COc1ccc(C=O)cc1-c1cc2c(Nc3ccc4[nH]ccc4c3)c(C#N)cnc2s1` [Compound 202, 2-(5-formyl-2-methoxyphenyl)-4-(1H-indol-5-ylamino)thieno[2,3-b]pyridine-5-carbonitrile] in this work.

An IC50 of 437 nM was found for `CCOc1ccccc1-c1cc2c(Nc3ccc4[nH]ccc4c3C)c(C#N)cnc2s1` [Compound 332, 2-(2-ethoxyphenyl)-4-[(4-methyl-1H-indol-5-yl)amino]thieno[2,3-b]pyridine-5-carbonitrile] in this work.

An IC50 of 153 nM was found for `Cc1c(Nc2c(C#N)cnc3sc(C4=CCN(Cc5ccccc5)CC4)cc23)ccc2[nH]ccc12` [Compound 476, 2-(1-benzyl-1,2,3,6-tetrahydropyridin-4-yl)-4-[(4-methyl-1H-indol-5-yl)amino]thieno[2,3-b]pyridine-5-carbonitrile] in this work.

An IC50 of 69 nM was found for `Cc1c(Nc2c(C#N)cnc3sc(-c4cnc(N5CCOCC5)nc4)cc23)ccc2[nH]ccc12` [Compound 330, 4-[(4-methyl-1H-indol-5-yl)amino]-2-(2-morpholin-4-ylpyrimidin-5-yl)thieno[2,3-b]pyridine-5-carbonitrile] in this work.

An IC50 of 57 nM was found for `Cc1c(Nc2c(C#N)cnc3sc(-c4ccccc4CNCCO)cc23)ccc2[nH]ccc12` [Compound 470, 2-(2-{[(2-hydroxyethyl)amino]methyl}phenyl)-4-[(4-methyl-1H-indol-5-yl)amino]thieno[2,3-b]pyridine-5-carbonitrile] in this work.

An IC50 of 80 nM was found for `Cc1c(Nc2c(C#N)cnc3sc(I)c(C)c23)ccc2[nH]ccc12` [Compound 318, 2-Iodo-3-methyl-4-[(4-methyl-1H-indol-5-yl)amino]thieno[2,3-b]pyridine-5-carbonitrile] in this work.

An IC50 of 64 nM was found for `Cc1c(Nc2c(C#N)cnc3sc(-c4cc(CN(C)C)cc(OC(C)C)c4)cc23)ccc2[nH]ccc12` [Compound 466, 2-{3-[(dimethylamino)methyl]-5-isopropoxyphenyl}-4-[(4-methyl-1H-indol-5-yl)amino]thieno[2,3-b]pyridine-5-carbonitrile] in this work.

An IC50 of 243 nM was found for `COc1ccc(CN(C)C)cc1-c1sc2ncc(C#N)c(Nc3ccc4[nH]ccc4c3C)c2c1C` [Compound 459, 2-{5-[(dimethylamino)methyl]-2-methoxyphenyl}-3-methyl-4-[(4-methyl-1H-indol-5-yl)amino]thieno[2,3-b]pyridine-5-carbonitrile] in this work.

An IC50 of 38 nM was found for `N#Cc1cnc2sc(-c3cccc(CN)c3)cc2c1Nc1ccc2[nH]ccc2c1` [Compound 196, 2-[3-(aminomethyl)phenyl]-4-(1H-indol-5-ylamino)thieno[2,3-b]pyridine-5-carbonitrile] in this work.

An IC50 of 4670 nM was found for `N#Cc1cnc2sc(-c3ccccc3)cc2c1Nc1cnc2[nH]ccc2c1` [Compound 322, 2-phenyl-4-(1H-pyrrolo[2,3-b]pyridin-5-ylamino)thieno[2,3-b]pyridine-5-carbonitrile] in this work.

An IC50 of 34 nM was found for `Cc1c(Nc2c(C#N)cnc3sc(-c4cccc(S(N)(=O)=O)c4)c(C)c23)ccc2[nH]ccc12` [Compound 427, 3-{5-cyano-3-methyl-4-[(4-methyl-1H-indol-5-yl)amino]thieno[2,3-b]pyridin-2-yl}benzenesulfonamide] in this work.

An IC50 of 1380 nM was found for `N#Cc1cnc2sc(-c3ccc4ccccc4c3)cc2c1Nc1ccc2[nH]ccc2c1` [Compound 328, 4-(1H-indol-5-ylamino)-2-(2-naphthyl)thieno[2,3-b]pyridine-5-carbonitrile] in this work.

An IC50 of 70 nM was found for `Cc1c(Nc2c(C#N)cnc3sc(-c4ccc(OC[C@H](O)CO)cc4)cc23)ccc2[nH]ccc12` [Compound 486, 2-(4-{[(2R)-2,3-dihydroxypropyl]-oxy}phenyl)-4-[(4-methyl-1H-indol-5-yl)amino]thieno[2,3-b]pyridine-5-carbonitrile] in this work.

An IC50 of 34 nM was found for `Cc1c(Nc2c(C#N)cnc3sc(/C=C/c4ccccc4)cc23)ccc2[nH]ccc12` [Compound 416, 4-[(4-methyl-1H-indol-5-yl)amino]-2-[(E)-2-phenylvinyl]thieno[2,3-b]pyridine-5-carbonitrile] in this work.

An IC50 of 22 nM was found for `COc1ccccc1-c1cc2c(Nc3ccc4[nH]ccc4c3C)c(C#N)cnc2s1` [Compound 364, 2-(2-methoxyphenyl)-4-[(4-methyl-1H-indol-5-yl)amino]thieno[2,3-b]pyridine-5-carbonitrile] in this work.

An IC50 of 171 nM was found for `Cc1c(Nc2c(C#N)cnc3sc(-c4cc5cc(CN(C)C)ccc5s4)cc23)ccc2[nH]ccc12` [Compound 467, 2-{5-[(dimethylamino)methyl]-1-benzothien-2-yl}-4-[(4-methyl-1H-indol-5-yl)amino]thieno[2,3-b]pyridine-5-carbonitrile] in this work.

An IC50 of 14 nM was found for `Cc1c(Nc2c(C#N)cnc3sc(/C=C/CCO)cc23)ccc2[nH]ccc12` [Compound 420, 2-[(1E)-4-hydroxybut-1-en-1-yl]-4-[(4-methyl-1H-indol-5-yl)amino]thieno[2,3-b]pyridine-5-carbonitrile] in this work.

An IC50 of 4 nM was found for `Cc1c(Nc2c(C#N)cnc3sc(/C=C/C(=O)N4CCCC4)c(C)c23)ccc2[nH]ccc12` [Compound 302, 3-methyl-4-[(4-methyl-1H-indol-5-yl)amino]-2-[(1E)-3-oxo-3-pyrrolidin-1-ylprop-1-en-1-yl]thieno[2,3-b]pyridine-5-carbonitrile] in this work.

An IC50 of 15 nM was found for `COc1c(C=O)cccc1-c1cc2c(Nc3ccc4[nH]ccc4c3C)c(C#N)cnc2s1` [Compound 525, 2-(3-formyl-2-methoxyphenyl)-4-[(4-methyl-1H-indol-5-yl)amino]thieno[2,3-b]pyridine-5-carbonitrile] in this work.

An IC50 of 11 nM was found for `Cc1c(Nc2c(C#N)cnc3scc(C(C)C)c23)ccc2[nH]ccc12` [Compound 503, 3-isopropyl-4-[(4-methyl-1H-indol-5-yl)amino]thieno[2,3-b]pyridine-5-carbonitrile] in this work.

An IC50 of 182 nM was found for `Cc1c(Nc2c(C#N)cnc3sc(-c4ccccc4NS(C)(=O)=O)cc23)ccc2[nH]ccc12` [Compound 371, N-(2-{5-cyano-4-[(4-methyl-1H-indol-5-yl)amino]thieno[2,3-b]pyridin-2-yl}phenyl)methanesulfonamide] in this work.

An IC50 of 141 nM was found for `Cc1c(Nc2c(C#N)cnc3sc(-c4cccc(Br)c4)cc23)ccc2[nH]ccc12` [Compound 377, 2-(3-bromophenyl)-4-[(4-methyl-1H-indol-5-yl)amino]thieno[2,3-b]pyridine-5-carbonitrile] in this work.

An IC50 of 23 nM was found for `CCOC(=O)/C=C/c1cc2c(Nc3ccc4[nH]ccc4c3C)c(C#N)cnc2s1` [Compound 282, ethyl (2E)-3-{5-cyano-4-[(4-methyl-1H-indol-5-yl)amino]thieno[2,3-b]pyridin-2-yl}acrylate] in this work.

An IC50 of 23500 nM was found for `N#Cc1cnc2sc(/C=C/c3ccc(C(F)(F)F)cc3)cc2c1Nc1ccc2[nH]ccc2c1` [Compound 408, 4-(1H-indol-5-ylamino)-2-{(E)-2-[4-(trifluoromethyl)phenyl]vinyl}thieno[2,3-b]pyridine-5-carbonitrile] in this work.

An IC50 of 15 nM was found for `Cc1c(Nc2c(C#N)cnc3scc(Br)c23)ccc2[nH]ccc12` [Compound 325, 3-bromo-4-[(4-methyl-1H-indol-5-yl)amino]thieno[2,3-b]pyridine-5-carbonitrile] in this work.

An IC50 of 70 nM was found for `Cc1c(Nc2c(C#N)cnc3sc(-c4cc5ccccc5[nH]4)cc23)ccc2[nH]ccc12` [Compound 434, 2-(1H-indol-2-yl)-4-[(4-methyl-1H-indol-5-yl)amino]thieno[2,3-b]pyridine-5-carbonitrile] in this work.

An IC50 of 790 nM was found for `CN(C)Cc1ccc(C#Cc2cc3c(Nc4ccc5[nH]ccc5c4)c(C#N)cnc3s2)nc1` [Compound 229, 2-({5-[(dimethylamino)methyl]pyridin-2-yl}ethynyl)-4-(1H-indol-5-ylamino) thieno[2,3-b]pyridine-5-carbonitrile] in this work.

An IC50 of 276 nM was found for `Cc1c(Nc2c(C#N)cnc3sc(C(=O)N4CCOCC4)cc23)ccc2[nH]ccc12` [Compound 255, 4-[(4-methyl-1H-indol-5-yl)amino]-2-(morpholin-4-ylcarbonyl)thieno[2,3-b]pyridine-5-carbonitrile] in this work.

An IC50 of 840 nM was found for `N#Cc1cnc2sc(-c3cccc(CN4CCN(Cc5ccncc5)CC4)c3)cc2c1Nc1ccc2[nH]ccc2c1` [Compound 169, 4-(1H-indol-5-ylamino)-2-(3-{[4-(pyridin-4-ylmethyl)piperazin-1-yl]methyl}phenyl)thieno[2,3-b]pyridine-5-carbonitrile] in this work.

An IC50 of 100 nM was found for `Cc1c(Nc2c(C#N)cnc3sc(C4=CCN(C(=O)OC(C)(C)C)CC4)cc23)ccc2[nH]ccc12` [Compound 418, tert-butyl 4-{5-cyano-4-[(4-methyl-1H-indol-5-yl)amino]thieno[2,3-b]pyridin-2-yl}-5,6-dihydropyridine-1(2H)-carboxylate] in this work.

An IC50 of 2450 nM was found for `N#Cc1cnc2sc(/C=C/c3ccc(F)cc3)cc2c1Nc1ccc2[nH]ccc2c1` [Compound 401, 2-[(E)-2-(4-fluorophenyl)vinyl]-4-(1H-indol-5-ylamino)thieno[2,3-b]pyridine-5-carbonitrile] in this work.

An IC50 of 69 nM was found for `N#Cc1cnc2sc(I)cc2c1Nc1cnc2[nH]ccc2c1Cl` [Compound 507, 4-[(4-chloro-1H-pyrrolo[2,3-b]pyridin-5-yl)amino]-2-iodothieno[2,3-b]pyridine-5-carbonitrile] in this work.

Source: patent US20070082880A1 (priority 2005, published 2007)
